# Test results as given in article PMC3851574 (Journal of structural biology, 2013).
# Target: T1, GCN4-Kar3Cik1 (Kar3Cik1) (Saccharomyces cerevisiae, UniProt P17119)
# T1 sequence (P17119 353-729): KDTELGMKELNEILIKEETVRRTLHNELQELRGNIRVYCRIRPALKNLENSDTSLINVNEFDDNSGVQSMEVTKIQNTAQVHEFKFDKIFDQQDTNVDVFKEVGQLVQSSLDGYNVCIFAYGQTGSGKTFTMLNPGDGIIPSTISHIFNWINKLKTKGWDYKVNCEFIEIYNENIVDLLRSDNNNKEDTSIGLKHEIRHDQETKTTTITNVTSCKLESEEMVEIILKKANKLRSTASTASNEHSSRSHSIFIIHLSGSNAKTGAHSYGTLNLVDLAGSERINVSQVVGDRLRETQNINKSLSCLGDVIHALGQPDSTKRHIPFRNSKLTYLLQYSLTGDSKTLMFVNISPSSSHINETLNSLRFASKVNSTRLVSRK
# T1 sequence (Q01649 344-594 partner): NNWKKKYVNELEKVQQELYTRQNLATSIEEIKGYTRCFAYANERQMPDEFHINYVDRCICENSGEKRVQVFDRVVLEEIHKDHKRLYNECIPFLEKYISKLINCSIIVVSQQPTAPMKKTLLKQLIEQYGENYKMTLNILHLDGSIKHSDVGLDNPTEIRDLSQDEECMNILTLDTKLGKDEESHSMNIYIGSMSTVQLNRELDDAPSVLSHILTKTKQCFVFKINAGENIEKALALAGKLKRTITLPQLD
# Assay: cryo-EM and unidirectional metal shadowing of microtubule decoration
# Assay type: binding
# Conditions: 1 mM ADP; bovine brain microtubules; ATPase buffer pH 7.2
smiles,measurement,value
Nc1ncnc2c1ncn2[C@@H]1O[C@H](COP(=O)(O)OP(=O)(O)O)[C@@H](O)[C@H]1O [ADP],cryo-EM and unidirectional metal shadowing of microtubule decoration,Excess ADP significantly lowered the microtubule-binding affinity of Kar3Cik1 in our experiments
